From US20210007356A1, “IMIDE DERIVATIVE AND FUNGICIDE CONTAINING SAID DERIVATIVE AS ACTIVE INGREDIENT” (HOKKO CHEMICAL INDUSTRY CO., LTD., priority 2018, published 2021)
Where two headings read alike, the source gives them in different places.

Legend:
[1] = test system: rice blast fungus (Pyricularia grisea); format: in vivo; conditions: flowable 1,000 ppm, 1 mL dripped in paddy water, inoculated after 1 week, 7 days after inoculation
[2] = test system: rice blast fungus (Pyricularia grisea); format: in vivo; conditions: 5 g of granule on nursery box, paddy rice; inoculated after 3 weeks; 7 days after inoculation
[3] = test system: rice blast fungus (Pyricularia grisea); format: in vivo; conditions: flowable 5,000 ppm, 50 mL irrigation of nursery box, paddy rice; inoculated after 3 weeks; 7 days after inoculation
[4] = test system: barley powdery mildew fungus (Erysiphe graminis); assay: Test Example 2: control effect against barley powdery mildew by foliage application; format: in vivo; conditions: wettable powder diluted to 100 ppm, 10 mL per pot foliage spray on barley; inoculated day after; 7 days after inoculation
[5] = test system: rice sheath blight fungus (Thanatephorus cucumeris); assay: Test Example 8: control effect against rice sheath blight by box treatment (granule); conditions: 5 g of granule on nursery box, paddy rice; inoculated after 3 weeks; 7 days after inoculation
Source text: (§1) Control value (%)=[1−(lesion height in sprayed plot/lesion height in unsprayed plot)]×100 (d)
From the top of a nursery box, 5 g of a granule prepared according to Formulation Example-4 was applied to a 2.5-leaf-stage paddy rice (variety: Asahi) seedling raised using a nursery box ( 1/10 the area of standard nursery box in size: 12 cm×15 cm×height 4 cm) within a greenhouse. The formulation-treated paddy rice seedling was immediately transplanted at 5 seedlings/pot into a pot ( 1/10000 are in size) filled with paddy soil (flooded). After growing for 3 weeks within a greenhouse, a culture of rice sheath blight fungus (Thanatephorus cucumeris) grown in advance on a rice straw medium was inoculated into the root of the formulation-treated paddy rice, and disease development was promoted in an artificial weather chamber at 26° C. (relative humidity=100%). Seven days after the inoculation, the rice sheath blight lesion height (height from the root) was examined, and the control value (%) was calculated according to formula (d). […] This test was performed with three replications, each consisting of one plot and one pot, per one formulation plot, and its average evaluation value of control effect was determined.

[6] = test system: rice sheath blight fungus (Thanatephorus cucumeris); assay: Test Example 10: control effect against rice sheath blight by water surface application (flowable formulation); conditions: flowable 1,000 ppm, 1 mL dripped in paddy water, inoculated after 1 week, 7 days after inoculation
Procedure: as §1
By dripping treatment in paddy water, 1 mL of a diluted solution (1,000 ppm) of a flowable prepared according to Formulation Example-3 was applied to a 5-leaf-stage paddy rice (variety: Asahi) seedling (5 seedlings/stub, one stub/pot) grown in a pot ( 1/10000 are in size) filled with paddy soil (flooded) within a greenhouse. After growing for 1 week within a greenhouse, a culture of rice sheath blight fungus (Thanatephorus cucumeris) grown in advance on a rice straw medium was inoculated into the root of the formulation-treated paddy rice, and disease development was promoted in an artificial weather chamber at 26° C. (relative humidity=100%). Seven days after the inoculation, the rice sheath blight lesion height (height from the root) was examined, and the control value (%) was calculated according to formula (d). […] This test was performed with three replications, each consisting of one plot and one pot, per one formulation plot, and its average evaluation value of control effect was determined.

[7] = test system: rice sheath blight fungus (Thanatephorus cucumeris); assay: Test Example 6: control effect against rice sheath blight by box treatment (flowable formulation); conditions: flowable 5,000 ppm, 50 mL irrigation of nursery box, paddy rice; inoculated after 3 weeks; 7 days after inoculation
Procedure: as §1
By irrigation, 50 mL of a diluted solution (5,000 ppm) of a flowable prepared according to Formulation Example-3 was applied to a 2.5-leaf-stage paddy rice (variety: Asahi) seedling raised using a nursery box ( 1/10 the area of standard nursery box in size: 12 cm×15 cm×height 4 cm) within a greenhouse. The formulation-treated paddy rice seedling was immediately transplanted at 5 seedlings/pot into a pot ( 1/10000 are in size) filled with paddy soil (flooded). After growing for 3 weeks within a greenhouse, a culture of rice sheath blight fungus (Thanatephorus cucumeris) grown in advance on a rice straw medium was inoculated into the root of the formulation-treated paddy rice, and disease development was promoted in an artificial weather chamber at 26° C. (relative humidity=100%). Seven days after the inoculation, the rice sheath blight lesion height (height from the root) was examined, and the control value (%) was calculated according to formula (d). […] This test was performed with three replications, each consisting of one plot and one pot, per one formulation plot, and its average evaluation value of control effect was determined.

SMILES | evaluation value of control effect (from control value, number of lesions) [1] | evaluation value of control effect (from control value, number of lesions) [2] | evaluation value of control effect (from control value, number of lesions) [3] | evaluation value of control effect (from control value, lesion area percentage) [4] | evaluation value of control effect (from control value, lesion height) [5] | evaluation value of control effect (from control value, lesion height) [6] | evaluation value of control effect (from control value, lesion height) [7]
Cc1nc(C(F)F)c(C(=O)N(C(=O)c2snc(Cl)c2Cl)c2ccsc2C(C)CC(C)C)s1 (stereo not shown) [11-8] | 5 | 5 | 5 | 5 |  |  | 
CCc1nc(C(F)F)c(C(=O)N(C(=O)c2snc(Cl)c2Cl)c2ccccc2C(C)CC(C)C)s1 (stereo not shown) [7-132] | 5 | 5 | 5 | 4 |  |  | 
Cc1nc(C(F)F)c(C(=O)N(C(=O)c2cc(Cl)c(Cl)s2)c2cccc3c2C(C)CC3(C)C)s1 (stereo not shown) [26-87] | 5 | 5 | 5 |  |  |  | 
Cc1nc(C(F)F)c(C(=O)N(C(=O)c2cccnc2C(F)F)c2ccccc2C(C)CC(C)C)s1 (stereo not shown) [13-20] |  |  | 5 | 4 |  |  | 
Cc1nn(C)c(Cl)c1C(=O)N(C(=O)c1cccc2nnsc12)c1cccc2c1C(C)OC2(C)C (stereo not shown) [25-118] | 5 | 5 | 5 |  |  |  | 
Cn1cc(C(=O)N(C(=O)c2cccc3nnsc23)c2ccccc2-c2cc(F)c(F)c(F)c2)c(C(F)F)n1 [1-369] |  |  |  | 4 | 5 | 5 | 5
Cc1nsc(C(=O)N(C(=O)c2cn(C)nc2C(F)F)c2ccccc2C(C)CC(C)C)c1Cl (stereo not shown) [1-140] |  |  |  | 5 | 5 | 5 | 5
Cc1nn(C)c(Cl)c1C(=O)N(C(=O)c1onc(Cl)c1Cl)c1cccc2c1C(C)OC2(C)C (stereo not shown) [25-124] |  |  |  | 4 | 5 | 5 | 5
CC(C)CC(C)c1ccccc1N(C(=O)c1cn(C)nc1C(F)F)C(=O)c1c(C(F)F)nn(C)c1Cl (stereo not shown) [1-354] |  |  |  | 5 | 5 | 5 | 5
Cc1nc(C(F)F)c(C(=O)N(C(=O)c2cc(Cl)no2)c2cccc3c2C(C)CC3(C)C)s1 (stereo not shown) [26-88] |  |  |  | 4 | 5 | 5 | 5
Cc1nc(C(F)(F)F)c(C(=O)N(C(=O)c2cn(C)nc2C(F)F)c2cccc3c2C(C)OC3(C)C)s1 (stereo not shown) [25-92] |  |  |  | 4 | 5 | 5 | 5
